Among the data in ChEMBL document CHEMBL5233269, “Anticancer potential of spirocompounds in medicinal chemistry: A pentennial expedition” (Eur J Med Chem, 2021) are IC50, Ki and Activity values, retold here.

The structures appear in SMILES notation.

For one assay, the system named is Huh-7. The experiment in a line: Anticancer activity against human Huh-7 cells measured after 72 hrs by SRB assay. The class given is functional, cell-based. The settings on record: Huh-7, 72 h.
For a further assay, the system named is Mahlavu. The experiment in a line: Anticancer activity against human Mahlavu cells measured after 72 hrs by SRB assay. The class given is functional, cell-based. (In SRB staining, fixed cells bind dye roughly in proportion to their protein.)
Assay [1] relates to MCF7. The experiment in a line: Anticancer activity against human MCF7 cells measured after 72 hrs by SRB assay. The class given is functional, cell-based. Particulars: MCF7, 72 h.
Assay [2] concerns HCT-116. The experiment in a line: Anticancer activity against human HCT-116 cells measured after 72 hrs by SRB assay. The settings on record: HCT-116, 72 h. The class given is functional, cell-based.
The next assay has as its system DU-145. The experiment in a line: Antiproliferative activity against human DU-145 cells assessed as inhibition of cell viability by MTT assay. The class given is functional, cell-based. (In general: Formazan colour is commonly taken as a measure of viable cells.)
The test system of assay [3] is MDA-MB-231. Briefly: Antiproliferative activity against human MDA-MB-231 cells assessed as inhibition of cell viability by MTT assay. The class given is functional, cell-based.
The test system of assay [4] is MCF7. The experiment in a line: Antiproliferative activity against human MCF7 cells by MTT assay. The class given is functional, cell-based.
Assay [5] deals with PC-3. Briefly: Antiproliferative activity against human PC-3 cells assessed as inhibition of cell viability by MTT assay. The class given is functional, cell-based.
For assay [6], the system named is MCF7. The experiment in a line: Anticancer activity against human MCF7 cells assessed as inhibition of cell proliferation. The class given is functional, cell-based.
The next assay has as its system KB. Briefly: Anticancer activity against human KB cells assessed as inhibition of cell proliferation. The class given is functional, cell-based.
Assay [7] relates to HL-60. Briefly: Induction of mitochondrial membrane potential loss in human HL-60 cells measured after 72 hrs by TMRM dye based flow cytometric analysis. Particulars: HL-60, 72 h. The class given is functional, cell-based. (In general: In flow cytometry, cells or beads pass a laser one at a time.)
For assay [8], the system named is HL-60. Briefly: Induction of mitochondrial membrane potential loss in human HL-60 cells measured after 72 hrs by […] based flow cytometric analysis. The class given is functional, cell-based. The settings on record: HL-60, 72 h.
In a further assay the test system is FaDu. The experiment in a line: Anticancer activity against human FaDu cells. The class given is functional, cell-based.
The test system of a further assay is K562. Briefly: Anticancer activity against human K562 cells. The class given is functional, cell-based.
Assay [9] concerns PC-3. Briefly: Anticancer activity against human PC-3 cells. The class given is functional, cell-based.
In a further assay the test system is A549. Briefly: Anticancer activity against human A549 cells. The class given is functional, cell-based.
Assay [10] concerns MCF7. Briefly: Anticancer activity against human MCF7 cells measured after 48 hrs by Sulforhodamine B assay. Particulars: MCF7, 48 h. The class given is functional, cell-based.
Assay [11] relates to HeLa. Briefly: Anticancer activity against human HeLa cells measured after 48 hrs by Sulforhodamine B assay. The class given is functional, cell-based.
Another assay concerns T47D. Briefly: Anticancer activity against human T47D cells measured after 48 hrs by Sulforhodamine B assay. The class given is functional, cell-based.
Assay [12] deals with HCT-116. The experiment in a line: Anticancer activity against human HCT-116 cells measured after 48 hrs by Sulforhodamine B assay. The class given is functional, cell-based. Particulars: HCT-116, 48 h.
Assay [13] relates to HepG2. Briefly: Anticancer activity against human HepG2 cells measured after 48 hrs by Sulforhodamine B assay. The class given is functional, cell-based. Particulars: HepG2, 48 h.
In assay [14] the test system is MDA-MB-231. Briefly: Antiproliferative activity against human MDA-MB-231 cells by MTT assay. The class given is functional, cell-based.
For assay [15], the target named is T1, Androgen receptor (Homo sapiens, UniProt P10275). The experiment in a line: Antagonist activity at androgen receptor (unknown origin) assessed as inhibition constant.
T1 sequence (P10275 whole entry): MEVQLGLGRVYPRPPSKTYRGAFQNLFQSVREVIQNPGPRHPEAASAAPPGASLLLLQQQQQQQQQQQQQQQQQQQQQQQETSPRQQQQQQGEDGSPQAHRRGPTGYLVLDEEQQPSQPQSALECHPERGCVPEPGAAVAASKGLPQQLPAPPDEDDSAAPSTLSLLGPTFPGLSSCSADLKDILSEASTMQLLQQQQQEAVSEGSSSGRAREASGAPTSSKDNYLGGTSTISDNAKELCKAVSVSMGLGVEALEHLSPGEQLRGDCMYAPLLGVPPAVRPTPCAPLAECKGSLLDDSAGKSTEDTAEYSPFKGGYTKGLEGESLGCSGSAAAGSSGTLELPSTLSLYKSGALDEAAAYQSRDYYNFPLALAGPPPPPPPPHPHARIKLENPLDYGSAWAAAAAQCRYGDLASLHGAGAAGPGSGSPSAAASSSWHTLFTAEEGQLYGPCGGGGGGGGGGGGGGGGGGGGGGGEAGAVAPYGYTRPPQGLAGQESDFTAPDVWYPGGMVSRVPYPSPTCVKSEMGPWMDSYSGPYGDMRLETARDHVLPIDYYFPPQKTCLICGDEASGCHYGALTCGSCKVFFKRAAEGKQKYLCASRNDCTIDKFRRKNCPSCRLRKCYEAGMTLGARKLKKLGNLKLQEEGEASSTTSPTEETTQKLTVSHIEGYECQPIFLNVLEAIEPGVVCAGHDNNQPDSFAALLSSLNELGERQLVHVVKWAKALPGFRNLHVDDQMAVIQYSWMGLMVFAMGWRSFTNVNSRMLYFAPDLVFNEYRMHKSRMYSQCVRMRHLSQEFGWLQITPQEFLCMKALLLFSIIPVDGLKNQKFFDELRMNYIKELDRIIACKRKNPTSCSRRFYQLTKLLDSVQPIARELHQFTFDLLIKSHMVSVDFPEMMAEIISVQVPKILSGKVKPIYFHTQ
Assay [16] has as its target T1, Androgen receptor. The experiment in a line: Antagonist activity at androgen receptor (unknown origin).
In assay [17] the test system is MCF7. The experiment in a line: Cytotoxicity against human MCF7 cells assessed as reduction in cell viability. The class given is functional, cell-based.
Assay [18] relates to HeLa. Briefly: Cytotoxicity against human HeLa cells assessed as reduction in cell viability. The class given is functional, cell-based.
In assay [19] the test system is HepG2. Briefly: Anticancer activity against human HepG2 cells at 50 ug/ml measured after 48 hrs relative to control. The class given is functional. Particulars: dose 50 µg/ml.
The test system of assay [20] is HeLa. Briefly: Anticancer activity against human HeLa cells assessed as inhibition of cell viability. The class given is functional, cell-based.
Assay [21] is described as follows: Anticancer activity against […] 3T3 cells. The class given is functional, cell-based. The settings on record: NIH3T3.

The IC50 is the concentration at which inhibition is half-maximal. Turning to `CCNC(=O)[C@H]1[C@H](c2ccc([N+](=O)[O-])cc2)[C@@]2(C(=O)Cc3ccccc32)[C@H](CC(C)C)N1[C@H](c1ccccc1)[C@@H](O)c1ccccc1`, the IC50 with Huh-7 stood at 8.2 µM; in the assay with Mahlavu, 14.9 µM; in the assay with MCF7 [1], 4.8 µM; in the assay with HCT-116 [2], 3.9 µM.
Turning to `Clc1ccc(C2=NO[C@@]3(CCCCO3)[C@H]2Br)cc1`, the IC50 was 48.1 µM in the assay with DU-145, 53.1 µM in the assay on MDA-MB-231 [3], 51.2 µM with MCF7 [4] and 56.7 µM in the assay with PC-3 [5].
For the compound `O=C1NC(=O)C2(Cc3ccccc3N3CCSCC32)C(=O)N1` (configuration not stated), the IC50 in the assay on MCF7 [6] is 90.2 µM; in the assay with KB, 49.8 µM.
On to `O=C1CS/C(=C\C2c3ccccc3Nc3ccccc32)N1N(c1ccccc1)c1ccccc1`, for which the IC50 came to 25.9 µM in the assay on HL-60 [7] and 32.2 µM in the assay with HL-60 [8].
With `Cc1ccccc1/C=C1\CN(/C=C/c2ccccc2)C[C@]2(C1=O)[C@H](c1ccccc1C)[C@@H](Cc1ccccc1)N[C@]21C(=O)Nc2ccccc21`, the IC50 with FaDu amounted to 21 µM.
Consider `CCN(CC)C[C@@]1([C@H]2c3ccccc3[C@@H](O)[C@]23C(=O)N(Cc2ccccc2)c2ccccc23)C(=O)N(Cc2ccccc2)c2ccccc21`, for which the IC50 amounted to 7.4 µM in the assay with K562, 17.7 µM in the assay with PC-3 [9] and 18.1 µM in the assay with A549.
Consider `CN1C/C(=C\c2ccc(F)cc2)C(=O)[C@@]2(C1)[C@H](c1ccc(F)cc1)CN(C)[C@]21C(=O)Nc2ccc(Cl)cc21`, for which the IC50 in the assay on MCF7 [10] was determined as 2.98 µM; in the assay on HeLa [11], 2.75 µM; in the assay on T47D, 3.1 µM; with HCT-116 [12], 2.74 µM; with HepG2 [13] it was 3.08 µM.
Consider `N#CC1=C(c2ccccc2)Nc2c(c(-c3cccs3)nn2-c2ccccc2)C12C(=O)Nc1ccccc12` (configuration not stated), for which, in the assay with MDA-MB-231 [14], inhibition was half-maximal at 6.7 µM (IC50).
By Ki is commonly meant the equilibrium dissociation constant of an inhibitor or competing ligand from its target. Turning to `COC(=O)c1ccc(C2C(=S)N(c3ccc(C#N)c(C(F)(F)F)c3)C(=O)[C@]23CCOC3)cc1F` (some centres not stated), the Ki at Androgen receptor [15] was 0.0056 µM. This compound also came in with an IC50 on Androgen receptor [16] of 0.033 µM.
For `COc1ccc2c(c1)[C@]1(C(=O)N2)N(C)C[C@@H](c2ccc(F)cc2)[C@@]12CN(C)C/C(=C\c1ccc(F)cc1)C2=O`, the IC50 in the assay on MCF7 [10] turned out to be 3.1 µM; in the assay with HeLa [11], 2.88 µM; with T47D it was 2.98 µM; in the assay on HCT-116 [12], 2.86 µM; in the assay with HepG2 [13], 3.08 µM.
In the case of `Cc1ccc2[nH]c3c(c2c1)CC1(C3=O)C(c2ccc(F)cc2)C2CSCN2C12C(=O)Nc1ccccc12` (configuration not stated), the IC50 was 19.4 µM with MCF7 [17] and 79 µM in the assay with HeLa [18].
For `CCCCN1C(=O)C2(c3cc(F)ccc31)[C@@H](C(=O)OCC)[C@H](C(=O)OCC)NC2(CC(=O)OC)C(=O)OC` (some centres not stated), the Activity with HepG2 [19] is 55.92%.
With `O=C(c1ccc(F)cc1)C1C(c2ccc(Cl)cc2Cl)C2CSCN2C12C(=O)Nc1ccccc12` (configuration not stated), the figures for the IC50 (in the assay on HeLa [20]; in assay [21]) were 11.2 µM and 21.2 µM, respectively.
For `Cc1ccc2[nH]c3c(c2c1)CC1(C3=O)C(c2cccc3ccccc23)C2CSCN2C12C(=O)Nc1ccccc12` (configuration not stated), the IC50 amounted to 32.6 µM in the assay with MCF7 [17] and 24.4 µM in the assay with HeLa [18].
As to `O=C1/C(=C/c2ccccc2)CN(/C=C/c2ccccc2)C[C@@]12[C@H](c1ccccc1)[C@@H](Cc1ccccc1)N[C@]21C(=O)Nc2ccccc21`, the IC50 in the assay on FaDu turned out to be 19 µM.
